Assays:
Solubility = type: physicochemical; details: qualitative
Protocol: Racemic usnic acid (CAS No. 125-46-2) is the bioactive secondary metabolite of lichens. The large-scale use of said usnic acid has always been limited due to the low solubility in water (0.06 mg/cm^3, at room temperature of 20° C. and 1 atmosphere pressure).
As mentioned above, in such compound (ci) the lipophilic cavity of the cyclodextrins (host) hosts D-usnic acid, or salt thereof, or mixtures thereof (i) (guest), through a reversible non-covalent interaction. As a matter of fact, during the formation of the inclusion compound (ci), no covalent bond is formed, and no covalent bond is broken. The mechanism which—at least primarily—promotes the formation of the inclusion compound is the release of solvent molecules (preferably water molecules), a highly enthalpic exchange reaction, from the cyclodextrin cavity (ii). […] Furthermore, the inclusion compound (ci) renders D-usnic acid (or a salt thereof) compatible in an aqueous solution or an aqueous dispersion or an aqueous suspension. When said aqueous solution or dispersion or suspension, containing said inclusion compound (ci), is applied manually—by spraying or mechanically—to a surface such as that of a wall or floor of a hospital or kindergarten or school room, said acid or a salt thereof contained in said inclusion compound (ci) is capable of being placed, adhering and coating said surface uniformly and homogeneously as if it were a coating paint.
Said D-usnic acid as enantiomer (i), preferably as pure enantiomer, is of natural origin and could be associated, as chemical structure, with that of the corresponding synthesis compound having CAS No. 7562-61-0, i.e. the dextrorotatory enantiomer of said acid. The D-usnic acid as the pure enantiomer of the present invention is soluble in chloroform and ethyl acetate. […] Said D-usnic acid as a pure enantiomer has a melting point comprised from 192° C. to 204° C., a flash point of 223° C. and a boiling point of 605° C. Preferably, said D-usnic acid salt as pure enantiomer is a sodium salt. Said inclusion compound (ci) preferably comprises solid particles of D-usnic acid as pure enantiomer, or salt thereof, or mixtures thereof (i). More preferably, said solid particles have an average particle distribution comprised from 0.01 μm to 50 μm, preferably comprised from 0.1 μm to 30 μm, more preferably comprised from 0.15 μm to 20 μm, even more preferably comprised from 0.2 μm to 15 μm. Said average particle distribution was determined and measured using a laser diffraction method, according to the GB/T 19077-2016 standard, for example with a Malvern Mastersizer 3000 instrument. Said standard is meant in the version valid at the priority date of the present patent application. […]

[1] = Observed anti-bacterial efficacy depending on origin and isomer of usnic acid; details: natural versus synthetic dextrorotatory form
Source text: Therefore, the solubility of usnic acid in water has always represented, and still represents, a great limit to its use. Furthermore, as regards the efficacy of usnic acid (or of a relative salt thereof) in terms of anti-bacterial activity, the inventors of the present invention observed that it depends both on the (natural or synthetic) origin of usnic acid and on the type of isomer (levorotatory(−) and/or dextrorotatory(+)) used.

SMILES: CC(=O)c1c(O)c(C)c(O)c2c1OC1=CC(=O)C(C(C)=O)C(=O)C12C (single isomer, unassigned; (+)) [D-usnic acid, (+)-Usnic acid 2,6-Diacetyl-7,9-dihydroxy-8,9-dimethyldibenzo[b,d]furan-1,3(2H,9bH)-dione]
- solubility in chloroform (Solubility): soluble
- solubility in ethanol (Solubility): moderately soluble
- solubility in ethyl acetate (Solubility): soluble
- solubility in water (Solubility): insoluble
- stability, efficacy and activity compared with synthetic origin [1]: more stable, effective and active than the dextrorotatory form (+) of synthetic origin

— patent publication US20230025891A1, “COMPOSITION OF NATURAL EXTRACTS HAVING ANTIBACTERIAL OR BACTERIOSTATIC ACTIVITY ALSO FOR GRAM-NEGATIVE BACTERIA” (priority 2019, published 2023)
